{"source": "patent US6558712B1", "about": "“Delivery system for pharmaceutical, nutritional and cosmetic ingredients” (Natreon Inc., priority 2001, dated 2003)", "key": {"[1]": {"from_the_text": "(§1) Glibenclamide (Gb) is an oral hypoglycaemic agent of the sulfonyl urea group; however it is only sparingly soluble in water."}, "[2]": {"tested_on": "albino rats, made partially diabetic by administering streptozotocin", "assay": "Hypoglycaemic action (plasma glucose level) in albino rats made partially diabetic by streptozotocin", "format": "in vivo, rat", "conditions": "Gb 1.0 mg/kg, water-suspension, p.o., n=10", "from_the_text": "as §1"}, "[3]": {"tested_on": "albino rats", "assay": "Analgetic effect in albino rats, oral", "format": "in vivo, rat", "conditions": "Ptz alone, up to 240 mg/kg, p.o."}, "[4]": {"tested_on": "human volunteers", "assay": "Analgetic effect in human volunteers, oral", "format": "in vivo", "conditions": "Ptz alone, 50 mg oral"}, "[5]": {"conditions": "oral; background statement, species not given; cited from earlier work"}, "[6]": {"tested_on": "Streptozocin (Stz)-induced diabetic (SID) rats", "assay": "Plasma glucose level lowering in streptozocin-induced diabetic (SID) rats", "format": "in vivo, rat", "experimental": "Streptozocin (Stz)-induced diabetic (SID) rats were used for this study. Insulin (I, 1.0 U/kg, p.o.) produed only marginal lowering (<10%) of plasma glucose level (PGL) in SID rats. […] By contrast, purified fulvic acid-insulin compositions (0.25 U/kg+10 mg/kg, p.o.) produced a 25% lowering, and Fulvic Acid-Insulin compositions (0.5 U/kg+10 mg/kg, p.o.) produced a 38% lowering of PGL in SID rates. The effect lasted for 6 hours."}}, "data": [{"molecule": "COc1ccc(Cl)cc1C(=O)NCCc1ccc(S(=O)(=O)NC(=O)NC2CCCCC2)cc1", "note": "[Gb, Glibenclamide]", "values": [{"measurement": "solubility in water", "setting": "[1]", "value": "10-12%"}, {"measurement": "blood sugar lowering effect", "setting": "[2]", "value": "did not exhibit any noticeable blood sugar lowering effect"}]}, {"molecule": "CC(C)=CCN1CCC2(C)c3cc(O)ccc3CC1C2C", "note": "(stereo not shown) [Ptz, Pentazocin]", "values": [{"measurement": "analgetic effect", "setting": "[3]", "value": "does not exhibit any analgetic effect"}, {"measurement": "analgetic effect compared with codeine", "setting": "[4]", "value": "effective analgetic equivalent to 60 mg of codeine"}, {"measurement": "duration of analgesia", "setting": "[4]", "value": 120, "unit": "min"}, {"measurement": "time of onset of analgesia", "setting": "[4]", "value": 60, "unit": "min"}, {"measurement": "bioavailability, administered orally", "setting": "[5]", "value": "30-35%"}]}, {"molecule": "Insulin", "values": [{"measurement": "PGL lowering effect", "setting": "[6]; insulin 0.25 U/kg p.o.", "value": "did not exhibit any PGL lowering effect"}, {"measurement": "PGL lowering effect", "setting": "[6]; insulin 0.5 U/kg p.o.", "value": "did not exhibit any PGL lowering effect"}, {"measurement": "lowering of plasma glucose level (PGL)", "setting": "[6]; insulin 1.0 U/kg, p.o.", "value": "< 10", "unit": "%"}]}]}
